{"source": "patent US20170202840A1", "about": "“TREATMENT OF PANCREATIC CANCER WITH LIPOSOMAL IRINOTECAN” (MERRIMACK PHARMACEUTICALS, INC., priority 2016, published 2017)", "key": {"[1]": {"details": "intravenous; cited from earlier work"}, "[2]": {"details": "rats, cited from earlier work"}, "[3]": {"details": "mouse; cited from earlier work"}, "[4]": {"details": "human, in vivo; cited from earlier work"}, "[5]": {"details": "rat, in vivo; cited from earlier work"}, "[6]": {"details": "intravenous; cited from earlier work", "remark": "listed apart in the source"}, "[7]": {"test_system": "cytochrome P-450 isozymes", "details": "in vitro; cited from earlier work"}, "[8]": {"details": "cited from earlier work"}, "[9]": {"details": "rabbits, 6 mg/kg/day; cited from earlier work"}, "[10]": {"details": "in vivo", "text": "Serum bilirubin within the institutional normal range, albumin≧3 g/dL, and Karnofsky Performance Status (KPS)≧70 were required for study entry.\nTEAEs were graded by NCI CTCAE v4.0 and coded by MedDRA v14.1 for the following prespecified subgroups: sex, age (<65 vs ≧65 years), ethnicity (white vs Asian), UGT1A1*28 status, prior conventional irinotecan therapy (yes vs no), and prior 5-FU therapy (yes vs no). All TEAEs were followed until resolution or patient discontinuation. Analyses were performed on the safety population (ie, those who received≧1 dose of study medication).\nAll TEAEs were followed until resolution or patient discontinuation. The safety analysis population included all patients who received≧1 dose of study drug. The presence of the UGT1A1*28 allele was determined by genotype testing, and homozygous patients were identified (A7/TA7 genotype)"}, "[11]": {"details": "dog, in vivo"}}, "note": "Where a name gives a salt, the structure may show the parent alone. Read-outs that look alike come from different tables or passages of the source."}
{"compound": "CCc1c2c(nc3ccc(OC(=O)N4CCC(N5CCCCC5)CC4)cc13)-c1cc3c(c(=O)n1C2)COC(=O)[C@]3(O)CC", "note": "[irinotecan HCl, (5) 4,11-diethyl-3,4,12,14-tetrahydro-4-hydroxy-3,14-dioxo1H-pyrano[3′,4′:6,7]-indolizino[1,2 b]quinolin-9-yl-[1,4′bipiperidine]-1′-carboxylate, monohydrochloride, trihydrate]", "values": [{"measurement": "Time to appearance of radioactivity in milk", "setting": "[1]", "result": "≤ 5", "unit": "min"}, {"measurement": "Effects in offspring, dams dosed after organogenesis through weaning", "setting": "[2]; 6 mg/kg/day", "result": "decreased learning ability and decreased female body weights in the offspring"}, {"measurement": "Doses giving structural abnormalities and growth delays", "setting": "[2]", "result": "greater than 1.2 mg/kg/day"}, {"measurement": "Clastogenicity in vivo", "setting": "[3]", "result": "clastogenic"}, {"measurement": "Effect of dexamethasone (moderate CYP3A4 inducer) on pharmacokinetics of irinotecan", "setting": "[4]", "result": "does not alter the pharmacokinetics of irinotecan"}, {"measurement": "Exposure to irinotecan and SN-38 with concomitant ketoconazole", "setting": "[4]", "result": "increased exposure"}, {"measurement": "Exposure to irinotecan or SN-38 with CYP3A4 enzyme-inducing anticonvulsants or St. John's wort", "setting": "[4]", "result": "substantially reduced"}, {"measurement": "Urinary excretion of SN-38", "setting": "[4]", "result": "< 1", "unit": "%"}, {"measurement": "Urinary excretion of SN-38 glucuronide", "setting": "[4]", "result": 3, "unit": "%"}, {"measurement": "Carcinogenicity finding", "setting": "[5]", "result": "significant linear trend between irinotecan HCl dosage and the incidence of combined uterine horn endometrial stromal polyps and endometrial stromal sarcomas"}, {"measurement": "Doses without significant adverse effects on fertility and general reproductive performance", "setting": "[6]", "result": "up to 6 mg/kg/day"}]}
{"compound": "CCc1c2c(nc3ccc(O)cc13)-c1cc3c(c(=O)n1C2)COC(=O)[C@]3(O)CC", "note": "[SN-38]", "values": [{"measurement": "Inhibition of cytochrome P-450 isozymes", "setting": "[7]", "result": "do not inhibit cytochrome P-450 isozymes"}]}
{"compound": "CCc1c2c(nc3ccc(OC(=O)N4CCC(N5CCCCC5)CC4)cc13)-c1cc3c(c(=O)n1C2)COC(=O)[C@]3(O)CC", "note": "[irinotecan, (5) 4,11-diethyl-3,4,12,14-tetrahydro-4-hydroxy-3,14-dioxo1H-pyrano[3′,4′: 6,7]-indolizino[1,2b]quinolin-9-yl-[1,4′bipiperidine]-1′-carboxylate]", "values": [{"measurement": "Embryo-fetal effects, intravenous during organogenesis", "setting": "[2]; 6 mg/kg/day", "result": "increased post-implantation loss and decreased numbers of live fetuses"}, {"measurement": "Placental transfer", "setting": "[2]; intravenous", "result": "crosses the placenta"}, {"measurement": "Incidence of grade 4 neutropenia", "setting": "[8]; 350 mg/m2 once every-3-weeks, homozygous UGT1A1*28", "result": "≤ 50", "unit": "%"}, {"measurement": "Incidence of grade 4 neutropenia", "setting": "[8]; heterozygous (UGT1A1 6/7 genotype)", "result": 12.5, "unit": "%"}, {"measurement": "Incidence of grade 4 neutropenia", "setting": "[8]; homozygous wild-type (UGT1A1 6/6 genotype)", "result": "no grade 4 neutropenia was observed"}, {"measurement": "Inhibition of cytochrome P-450 isozymes", "setting": "[7]", "result": "do not inhibit cytochrome P-450 isozymes"}, {"measurement": "Embryo-fetal effects, intravenous during organogenesis", "setting": "[9]", "result": "increased post-implantation loss and decreased numbers of live fetuses"}]}
{"compound": "irinotecan sucrose octasulfate salt liposome injection [MM-398]", "values": [{"measurement": "Incidence of neutropenic sepsis", "setting": "[10]", "result": 0.8, "unit": "%"}, {"measurement": "Doses with atrophy of male and female reproductive organs", "setting": "[11]", "result": "≥ 13", "unit": "mg/kg"}]}
